Measurements taken from patent publication US5530126A, “Process for the preparation of substituted 6-(pyrazol-3yl)-1,4-benzoxazin-3-ones” (Monsanto Company, priority 1994, dated 1996).

Tests used:
Format in all cases: in vivo
Wild buckwheat [1] = assay: Pre-emergence herbicide test; conditions: Fallopia convolvulus, read-out: % plant inhibition (Wibw); for inhibition at 1120 g/ha: 1.12 kg/ha
Outline: (§1)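 Seeds or propagules placed on compacted topsoil, treated directly with a known amount of active ingredient in organic solvent or water, then covered with untreated soil. Pans kept in greenhouse, sub-irrigated; % inhibition scored about 10–14 days (usually 11) after seeding.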

Indian Mustard [2] = assay: Pre-emergence herbicide test; conditions: Brassica juncea, read-out: % plant inhibition (Inmu); for inhibition at 1120 g/ha: 1.12 kg/ha
Outline: as §1

Morningglory [3] = assay: Pre-emergence herbicide test; conditions: Ipomoea, read-out: % plant inhibition (Mogl); for inhibition at 1120 g/ha: 1.12 kg/ha
Outline: as §1

Downy Brome [4] = assay: Pre-emergence herbicide test; conditions: Bromus tectorum, read-out: % plant inhibition (Dobr); for inhibition at 1120 g/ha: 1.12 kg/ha
Outline: as §1

Seedling johnsongrass [5] = assay: Pre-emergence herbicide test; conditions: Sorghum halepense, read-out: % plant inhibition (Sejg); for inhibition at 1120 g/ha: 1.12 kg/ha
Outline: as §1

Cocklebur [6] = assay: Pre-emergence herbicide test; conditions: Xanthium strumarium, read-out: % plant inhibition (Cobu); for inhibition at 1120 g/ha: 1.12 kg/ha
Outline: as §1

Barnyardgrass [7] = assay: Pre-emergence herbicide test; conditions: Echinochloa crus-galli, read-out: % plant inhibition (Bygr); for inhibition at 1120 g/ha: 1.12 kg/ha
Outline: as §1

Yellow nutsedge [8] = assay: Pre-emergence herbicide test; conditions: Cyperus, read-out: % plant inhibition (Yens); for inhibition at 1120 g/ha: 1.12 kg/ha
Outline: as §1

Velvetleaf [9] = assay: Pre-emergence herbicide test; conditions: Abutilon theophrasti, read-out: % plant inhibition (Vele); for inhibition at 1120 g/ha: 1.12 kg/ha
Outline: as §1

Annual bluegrass [10] = assay: Pre-emergence herbicide test; conditions: read-out: % plant inhibition (Anbg); for inhibition at 1120 g/ha: 1.12 kg/ha
Outline: as §1

Wild buckwheat [11] = assay: Post-emergence herbicide test; conditions: Fallopia convolvulus, read-out: % plant inhibition (Wibw); for inhibition at 1120 g/ha: 1.12 kg/ha
Outline: (§2)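 Candidate compound was suspended or dissolved with about 0.4% by volume emulsifier and sprayed onto emerged plants two to three weeks old. Application volume equalled 1870 L/Ha at 170.3 kPa. Plants then returned to greenhouse; percent inhibition compared with control recorded at 10–14 days.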

Indian Mustard [12] = assay: Post-emergence herbicide test; conditions: Brassica juncea, read-out: % plant inhibition (Inmu); for inhibition at 1120 g/ha: 1.12 kg/ha
Outline: as §2

Morningglory [13] = assay: Post-emergence herbicide test; conditions: Ipomoea, read-out: % plant inhibition (Mogl); for inhibition at 1120 g/ha: 1.12 kg/ha
Outline: as §2

Downy Brome [14] = assay: Post-emergence herbicide test; conditions: Bromus tectorum, read-out: % plant inhibition (Dobr); for inhibition at 1120 g/ha: 1.12 kg/ha
Outline: as §2

Seedling johnsongrass [15] = assay: Post-emergence herbicide test; conditions: Sorghum halepense, read-out: % plant inhibition (Sejg); for inhibition at 1120 g/ha: 1.12 kg/ha
Outline: as §2

Cocklebur [16] = assay: Post-emergence herbicide test; conditions: Xanthium strumarium, read-out: % plant inhibition (Cobu); for inhibition at 1120 g/ha: 1.12 kg/ha
Outline: as §2

Barnyardgrass [17] = assay: Post-emergence herbicide test; conditions: Echinochloa crus-galli, read-out: % plant inhibition (Bygr); for inhibition at 1120 g/ha: 1.12 kg/ha
Outline: as §2

Yellow nutsedge [18] = assay: Post-emergence herbicide test; conditions: Cyperus, read-out: % plant inhibition (Yens); for inhibition at 1120 g/ha: 1.12 kg/ha
Outline: as §2

Velvetleaf [19] = assay: Post-emergence herbicide test; conditions: Abutilon theophrasti, read-out: % plant inhibition (Vele); for inhibition at 1120 g/ha: 1.12 kg/ha
Outline: as §2

Annual bluegrass [20] = assay: Post-emergence herbicide test; conditions: read-out: % plant inhibition (Anbg); for inhibition at 1120 g/ha: 1.12 kg/ha
Outline: as §2

Structure (SMILES)	inhibition at 1120 g/ha (Wild buckwheat [1]) [%]	inhibition at 1120 g/ha (Indian Mustard [2]) [%]	inhibition at 1120 g/ha (Morningglory [3]) [%]	inhibition at 1120 g/ha (Downy Brome [4]) [%]	inhibition at 1120 g/ha (Seedling johnsongrass [5]) [%]	inhibition at 1120 g/ha (Cocklebur [6]) [%]	inhibition at 1120 g/ha (Barnyardgrass [7]) [%]	inhibition at 1120 g/ha (Yellow nutsedge [8]) [%]	inhibition at 1120 g/ha (Velvetleaf [9]) [%]	inhibition at 1120 g/ha (Annual bluegrass [10]) [%]	inhibition at 1120 g/ha (Wild buckwheat [11]) [%]	inhibition at 1120 g/ha (Indian Mustard [12]) [%]	inhibition at 1120 g/ha (Morningglory [13]) [%]	inhibition at 1120 g/ha (Downy Brome [14]) [%]	inhibition at 1120 g/ha (Seedling johnsongrass [15]) [%]	inhibition at 1120 g/ha (Cocklebur [16]) [%]	inhibition at 1120 g/ha (Barnyardgrass [17]) [%]	inhibition at 1120 g/ha (Yellow nutsedge [18]) [%]	inhibition at 1120 g/ha (Velvetleaf [19]) [%]	inhibition at 1120 g/ha (Annual bluegrass [20]) [%]	other results
Cn1nc(-c2cc(C3OCCO3)c(Cl)cc2F)c(Cl)c1C(F)(F)F [Compound 100, 4-chloro-3-(4-chloro-5-(1,3-dioxolan-2-yl)-2-fluorophenyl)-1-methyl-5-(trifluoromethyl)-1H-pyrazole]	100	100	80	100	90	20	70	0	100	90	100	80	100	100	100	80	100	20	100	100	–
Cn1nc(-c2cc(C3SCCS3)c(Cl)cc2F)c(Cl)c1C(F)(F)F [Compound 101]	90	100	80	80	80	30	40	0	100	70	100	100	100	100	70	100	100	30	100	90	–
Cn1nc(-c2cc(C3OCCS3)c(Cl)cc2F)c(Cl)c1C(F)(F)F (centres unmarked) [Compound 102]	100	100	100	80	90	30	80	20	100	60	100	100	100	100	100	60	90	20	100	90	–
Cn1nc(-c2cc(C(C)(C)C#N)c(Cl)cc2F)c(Cl)c1C(F)(F)F [Compound 103]	100	40	60	70	40	0	20	0	50	20	100	70	80	30	70	60	80	10	100	40	–
CCOC(=O)CON=C(C)c1cc(-c2nn(C)c(C(F)(F)F)c2Cl)c(F)cc1Cl [Compound 104]	70	80	80	80	80	20	10	0	90	20	100	40	100	40	80	70	50	20	100	30	–
CC(=NOCC(N)=O)c1cc(-c2nn(C)c(C(F)(F)F)c2Cl)c(F)cc1Cl [Compound 105]	80	80	80	40	60	10	70	20	90	0	100	30	40	0	20	20	20	20	80	30	–
CC(C#N)c1cc(-c2nn(C)c(C(F)(F)F)c2Cl)c(F)cc1Cl (centres unmarked) [Compound 106]	100	90	60	80	80	20	80	0	80	30	90	60	100	20	40	60	60	10	100	30	–
CC(O)c1cc(-c2nn(C)c(C(F)(F)F)c2Cl)c(F)cc1Cl (centres unmarked) [Compound 107]	80	80	100	30	40	20	80	0	90	20	90	40	50	0	20	50	30	10	90	0	–
Cn1nc(-c2cc(CBr)c(Cl)cc2F)c(Cl)c1C(F)(F)F [Compound 108, 3-[5-(bromomethyl)-4-chloro-2-fluorophenyl]-4-chloro-1-methyl-5-(trifluoromethyl)-1H-pyrazole]	–	–	–	–	–	–	–	–	–	–	–	–	–	–	–	–	–	–	–	–	inhibition at 11210 g/ha (Wild buckwheat [1]; 11.21 kg/ha): 100%; inhibition at 11210 g/ha (Indian Mustard [2]; 11.21 kg/ha): 100%; inhibition at 11210 g/ha (Morningglory [3]; 11.21 kg/ha): 90%; inhibition at 11210 g/ha (Downy Brome [4]; 11.21 kg/ha): 100%; inhibition at 11210 g/ha (Seedling johnsongrass [5]; 11.21 kg/ha): 90%; inhibition at 11210 g/ha (Cocklebur [6]; 11.21 kg/ha): 80%; inhibition at 11210 g/ha (Barnyardgrass [7]; 11.21 kg/ha): 100%; inhibition at 11210 g/ha (Yellow nutsedge [8]; 11.21 kg/ha): 20%; inhibition at 11210 g/ha (Velvetleaf [9]; 11.21 kg/ha): 100%; inhibition at 11210 g/ha (Annual bluegrass [10]; 11.21 kg/ha): 50%; inhibition at 11210 g/ha (Wild buckwheat [11]; 11.21 kg/ha): 100%; inhibition at 11210 g/ha (Indian Mustard [12]; 11.21 kg/ha): 100%; inhibition at 11210 g/ha (Morningglory [13]; 11.21 kg/ha): 100%; inhibition at 11210 g/ha (Downy Brome [14]; 11.21 kg/ha): 100%; inhibition at 11210 g/ha (Seedling johnsongrass [15]; 11.21 kg/ha): 90%; inhibition at 11210 g/ha (Cocklebur [16]; 11.21 kg/ha): 100%; inhibition at 11210 g/ha (Barnyardgrass [17]; 11.21 kg/ha): 100%; inhibition at 11210 g/ha (Yellow nutsedge [18]; 11.21 kg/ha): 0%; inhibition at 11210 g/ha (Velvetleaf [19]; 11.21 kg/ha): 100%; inhibition at 11210 g/ha (Annual bluegrass [20]; 11.21 kg/ha): 90%
Cn1nc(-c2cc(CCl)c(Cl)cc2F)c(Cl)c1C(F)(F)F [Compound 109]	100	90	70	20	80	30	90	0	90	20	90	40	60	0	20	40	30	10	100	40	–
